Source: the NIST ThermoML archive (doi:10.1021/je101184s)
± gives the expanded uncertainty stated by the source.

Assay: relative permittivity at zero frequency (dimensionless)
Details: 298.15 K; 101.33 kPa; Liquid; Coaxial cylinder capacitor

CCCCn1cc[n+](C)c1C.O=S(=O)([N-]S(=O)(=O)C(F)(F)F)C(F)(F)F
relative permittivity at zero frequency: 14 ± 1.6

CCCCn1cc[n+](C)c1.F[P-](F)(F)(F)(F)F [1-butyl-3-methylimidazolium hexafluorophosphate]
relative permittivity at zero frequency: 14 ± 1.4

C[n+]1ccn(CCO)c1.F[B-](F)(F)F [1-(2-hydroxyethyl)-3-methylimidazolium tetrafluoroborate]
relative permittivity at zero frequency: 23.3 ± 2

CCCCC[N+](CC)(CC)CC.O=S(=O)([N-]S(=O)(=O)C(F)(F)F)C(F)(F)F [triethylpentylammonium bis(trifluoromethylsulfonyl)imide]
relative permittivity at zero frequency: 12.5 ± 1.4

O=[N+]([O-])[O-].[NH3+]CCO [ethanolammonium nitrate]
relative permittivity at zero frequency: 60.9 ± 4

CCCCn1cc[n+](C)c1.F[B-](F)(F)F [1-butyl-3-methylimidazolium tetrafluoroborate]
relative permittivity at zero frequency: 13.9 ± 0.8

CCCCn1c(C)c(C)[n+](C)c1C.O=S(=O)([N-]S(=O)(=O)C(F)(F)F)C(F)(F)F
relative permittivity at zero frequency: 15 ± 1.6

CCn1cc[n+](C)c1C.O=S(=O)([N-]S(=O)(=O)C(F)(F)F)C(F)(F)F
relative permittivity at zero frequency: 12.8 ± 0.8

Br.Cn1ccnc1 [1-methylimidazolium bromide]
relative permittivity at zero frequency: 16.6 ± 2.4

CCCC[N+]1(C)CCCC1.N#CN=C=[N-] [1-butyl-1-methylpyrrolidinium dicyanamide]
relative permittivity at zero frequency: 18 ± 1.6

CCCCn1cc[n+](C)c1C.F[B-](F)(F)F [1-butyl-2,3-dimethylimidazolium tetrafluoroborate]
relative permittivity at zero frequency: 13.3 ± 1.2

CCCCn1cc[n+](C)c1.N#C[S-] [1-butyl-3-methylimidazolium thiocyanate]
relative permittivity at zero frequency: 13.7 ± 1.6

CCCC[n+]1c(C)c(C)n(C)c1C.F[B-](F)(F)F
relative permittivity at zero frequency: 12 ± 1.2

CCOP(=O)([O-])OCC.CCn1cc[n+](C)c1 [1-ethyl-3-methylimidazolium diethyl phosphate]
relative permittivity at zero frequency: 16.9 ± 1.6

CCCCn1cc[n+](C)c1.O=S(=O)([O-])C(F)(F)F [1-butyl-3-methylimidazolium trifluoromethanesulfonate]
relative permittivity at zero frequency: 12.9 ± 1

CCn1cc[n+](C)c1.O=S(=O)([O-])O [1-ethyl-3-methylimidazolium hydrogen sulfate]
relative permittivity at zero frequency: 18.4 ± 2

CC(O)C(=O)[O-].[NH3+]CCO (stereo unspecified) [2-hydroxyethylammonium lactate]
relative permittivity at zero frequency: 85.6 ± 8

CCCCn1cc[n+](C)c1C.F[P-](F)(F)(F)(F)F [1-butyl-2,3-dimethylimidazolium hexafluorophosphate]
relative permittivity at zero frequency: 9.4 ± 2

CCn1cc[n+](C)c1.O=S(=O)([O-])C(F)(F)F [1-ethyl-3-methylimidazolium trifluoromethanesulfonate]
relative permittivity at zero frequency: 16.5 ± 1

Cl.Cn1ccnc1 [1-methylimidazolium chloride]
relative permittivity at zero frequency: 13.8 ± 2

CC(O)C(=O)O.OCCN(CCO)CCO [triethanolamine lactate]
relative permittivity at zero frequency: 59.7 ± 6

CC(=O)[O-].[NH3+]CCO [2-hydroxyethylammonium acetate]
relative permittivity at zero frequency: 58.3 ± 5

COP(=O)([O-])OC.Cn1cc[n+](C)c1 [1,3-dimethylimidazolium dimethylphosphate]
relative permittivity at zero frequency: 29.6 ± 3

CC(=O)O.OCCN(CCO)CCO [triethanolammonium acetate]
relative permittivity at zero frequency: 31 ± 3

CCOS(=O)(=O)[O-].CCn1cc[n+](C)c1 [1-ethyl-3-methylimidazolium ethyl sulfate]
relative permittivity at zero frequency: 35 ± 3

CCCCS(=O)(=O)[O-].CCn1cc[n+](C)c1 [1-ethyl-3-methylimidazolium butylsulfonate]
relative permittivity at zero frequency: 30 ± 3
